Biological target: human capsaicin receptor (VR1) (Homo sapiens, UniProt Q8NER1)
Assay: Capsaicin receptor binding assay ([3H]RTX competition, VR1-transfected HEK293 membranes)

Chain of human capsaicin receptor (VR1) (Q8NER1 whole entry): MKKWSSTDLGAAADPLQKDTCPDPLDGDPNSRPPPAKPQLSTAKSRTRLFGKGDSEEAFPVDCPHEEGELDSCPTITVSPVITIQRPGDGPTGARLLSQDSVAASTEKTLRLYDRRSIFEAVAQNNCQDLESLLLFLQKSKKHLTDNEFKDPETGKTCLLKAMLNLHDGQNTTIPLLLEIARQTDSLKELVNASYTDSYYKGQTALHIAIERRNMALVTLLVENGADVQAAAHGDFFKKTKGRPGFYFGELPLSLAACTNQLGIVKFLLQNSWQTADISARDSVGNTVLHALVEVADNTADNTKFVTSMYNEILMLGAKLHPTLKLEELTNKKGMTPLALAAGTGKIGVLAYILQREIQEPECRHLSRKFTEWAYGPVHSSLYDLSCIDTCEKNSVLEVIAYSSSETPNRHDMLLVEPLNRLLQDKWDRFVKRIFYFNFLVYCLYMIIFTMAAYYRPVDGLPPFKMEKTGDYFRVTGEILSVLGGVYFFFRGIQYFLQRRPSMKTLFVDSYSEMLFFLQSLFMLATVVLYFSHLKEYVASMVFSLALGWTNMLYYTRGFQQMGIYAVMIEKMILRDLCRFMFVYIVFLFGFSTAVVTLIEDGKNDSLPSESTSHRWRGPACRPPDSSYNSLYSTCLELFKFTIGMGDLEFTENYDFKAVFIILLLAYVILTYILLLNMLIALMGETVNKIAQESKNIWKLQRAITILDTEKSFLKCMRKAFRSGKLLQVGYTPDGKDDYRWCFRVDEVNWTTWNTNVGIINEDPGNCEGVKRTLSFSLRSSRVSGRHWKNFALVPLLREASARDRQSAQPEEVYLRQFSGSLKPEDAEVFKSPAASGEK

| Ki [µM] | Structure (SMILES) |
| --- | --- |
| < 1 | CN(CCc1nc(Nc2ccc(C(F)(F)F)cc2)c2ccc(-c3ncccc3C(F)(F)F)cc2n1)Cc1ccccc1F [Compound 396, [2-{2-[(2-Fluoro-benzyl)-methyl-amino]-ethyl}-7-(3-trifluoromethyl-pyridin-2-yl)-quinazolin-4-yl]-(4-trifluoromethyl-phenyl)-amine] |
| < 1 | CC1(C)CCCN(Cc2nc(Nc3ccc(C(F)(F)F)cc3)c3ccc(-c4ncccc4C(F)(F)F)cc3n2)C1 [Compound 549, [2-(3,3-Dimethyl-piperidin-1-ylmethyl)-7-(3-trifluoromethyl-pyridin-2-yl)-quinazolin-4-yl]-(4-trifluoromethyl-phenyl)-amine] |
| < 1 | C[C@@H]1CN(Cc2nc(Nc3ccc(C(F)(F)F)nc3)c3ncc(-c4ncccc4Cl)cc3n2)C[C@H](C)O1 [Compound 616, [7-(3-Chloro-pyridin-2-yl)-2-(2,6-dimethyl-morpholin-4-ylmethyl)-pyrido[3,2-d]pyrimidin-4-yl]-(6-trifluoromethyl-pyridin-3-yl)-amine (cis)] |
| < 1 | CC(C)(C)c1ccc(Nc2nc(CN3CCC[C@H]3C(=O)O)nc3cc(-c4ncccc4C(F)(F)F)cnc23)cc1 [Compound 752, (S)-1-[4-(4-tert-Butyl-phenylamino)-7-(3-trifluoromethyl-pyridin-2-yl)-pyrido[3,2-d]pyrimidin-2-ylmethyl]-pyrrolidine-2-carboxylic acid] |
| < 1 | COCc1nc(Nc2ccc(C(C)(C)C)cc2)c2ccc(-c3ncccc3Cl)cc2n1 [Compound 71, (4-tert-Butyl-phenyl)-[7-(3-chloro-pyridin-2-yl)-2-methoxymethyl-quinazolin-4-yl]-amine] |
| < 1 | CC(C)CCNCc1nc(Nc2ccc(C(F)(F)F)cc2)c2ccc(-c3ncccc3C(F)(F)F)cc2n1 [Compound 537, [2-[(3-Methyl-butylamino)-methyl]-7-(3-trifluoromethyl-pyridin-2-yl)-quinazolin-4-yl]-(4-trifluoromethyl-phenyl)-amine] |
| < 1 | C=CCN(CC=C)Cc1nc(Nc2ccc(C(F)(F)F)cc2)c2ccc(-c3ncccc3C(F)(F)F)cc2n1 [Compound 333] |
| < 1 | CCOCc1nc(Nc2ccc(C(C)C)cc2)c2ccc(-c3ncccc3Cl)nc2n1 [Compound 133, [7-(3-Chloro-pyridin-2-yl)-2-ethoxymethyl-pyrido[2,3-d]pyrimidin-4-yl]-(4-isopropyl-phenyl)-amine] |
| < 1 | CCN(CC)CCNC(=O)c1nc(Nc2ccc(C(F)(F)F)cc2)c2ccc(-c3ncccc3C(F)(F)F)nc2n1 [Compound 438, 4-(4-Trifluoromethyl-phenylamino)-7-(3-trifluoromethyl-pyridin-2-yl)-pyrido[2,3-d]pyrimidine-2-carboxylic acid (2-diethylamino-ethyl)-amide] |
| < 1 | COCc1nc(Nc2ccc(C3CCCC3)cc2)c2ccc(-c3ncccc3C(F)(F)F)nc2n1 [Compound 110, (4-Cyclopentyl-phenyl)-[2-methoxymethyl-7-(3-trifluoromethyl-pyridin-2-yl)-pyrido[2,3-d]pyrimidin-4-yl]-amine] |
| < 1 | CC(c1ccc(Nc2nc(CN3CCCCC3)nc3cc(-c4ncccc4C(F)(F)F)ccc23)cc1)C(F)(F)F (stereo not drawn) [Compound 523, [2-Piperidin-1-ylmethyl-7-(3-trifluoromethyl-pyridin-2-yl)-quinazolin-4-yI]-[4-(2,2,2-trifluoro-1-methyl-ethyl)-phenyl]-amine] |
| < 1 | COCc1nc(Nc2ccc(C(C)C)cc2)c2ccc(-c3ncccc3C)nc2n1 [Compound 96, (4-Isopropyl-phenyl)-[2-methoxymethyl-7-(3-methyl-pyridin-2-yl)-pyrido[2,3-d]pyrimidin-4-yl]-amine] |
| < 1 | COCc1nc(Nc2ccc(C(C)(C)C)cc2)c2ccc(-c3nccnc3Cl)nc2n1 [Compound 236, (4-tert-Butyl-phenyl)-[7-(3-chloro-pyrazin-2-yl)-2-methoxymethyl-pyrido[2,3-d]pyrimidin-4-yl]-amine] |
| < 1 | COCc1nc(Nc2ccc(C(C)(C)C)cc2)c2ccc(-c3ncccc3C(F)(F)F)cc2n1 [Compound 73, (4-tert-Butyl-phenyl)-[2-methoxymethyl-7-(3-trifluoromethyl-pyridin-2-yl)-quinazolin-4-yl]-amine] |
| < 1 | CN(C(C)(C)C)S(=O)(=O)c1ccc(Nc2nc(CO)nc3cc(-c4ncccc4C(F)(F)F)cnc23)cc1 [Compound 203, N-tert-Butyl-4-[2-hydroxymethyl-7-(3-trifluoromethyl-pyridin-2-yl)-pyrido[3,2-d]pyrimidin-4-ylamino]-N-methyl-benzenesulfonamide] |
| < 1 | OC1CCCN(CCCc2nc(Nc3ccc(C(F)(F)F)cc3)c3ccc(-c4ncccc4C(F)(F)F)cc3n2)C1 (stereo not drawn) [Compound 571, 1-{3-[4-(4-Trifluoromethyl-phenylamino)-7-(3-trifluoromethyl-pyridin-2-yl)-quinazolin-2-yl]-propyl}piperidin-3-ol] |
| < 1 | O=S(=O)(c1ccc(Nc2nc(COCc3ccccc3)nc3cc(-c4ncccc4C(F)(F)F)ccc23)cc1)C(F)(F)F [Compound 28, [2-Benzyloxymethyl-7-(3-trifluoromethyl-pyridin-2-yl)-quinazolin-4-yl]-(4-trifluoromethanesulfonyl-phenyl)-amine] |
| < 1 | Cc1cccnc1-c1ccc2c(Nc3ccc(C(C)C)cc3)nc(COC(C)C)nc2c1 [Compound 105, [2-Isopropoxymethyl-7-(3-methyl-pyridin-2-yl)-quinazolin-4-yl]-(4-isopropyl-phenyl)-amine] |
| < 1 | COCc1nc(Nc2ccc(C(F)(F)F)nc2)c2ncc(-c3ncccc3C(F)(F)F)cc2n1 [Compound 53, [2-Methoxymethyl-7-(3-trifluoromethyl-pyridin-2-yl)-pyrido[3,2-d]pyrimidin-4-yl]-(6-trifluoromethyl-pyridin-3-yl)-amine] |
| < 1 | CCCN(C)Cc1nc(Nc2ccc(C(F)(F)F)nc2)c2ccc(-c3ncccc3C(F)(F)F)cc2n1 [Compound 369, [2-[(Methyl-propyl-amino)-methyl]-7-(3-trifluoromethyl-pyridin-2-yl)-quinazolin-4-yl]-(6-trifluoromethyl-pyridin-3-yl)-amine] |
| < 1 | CNC(=O)c1nc(Nc2ccc(C(F)(F)F)cc2)c2ccc(-c3ncccc3C(F)(F)F)nc2n1 [Compound 449, 4-(4-Trifluoromethyl-phenylamino)-7-(3-trifluoromethyl-pyridin-2-yl)-pyrido[2,3-d]pyrimidine-2-carboxylic acid methylamide] |
| < 1 | CCCN(CCC)CCc1nc(Nc2ccc(C(F)(F)F)cc2)c2ccc(-c3ncccc3C(F)(F)F)cc2n1 [Compound 416, [2-Dipropylaminoethyl-7-(3-trifluoromethyl-pyridin-2-yl)-quinazolin-4-yl]-(4-trifluoromethyl-phenyl)-amine] |
| < 1 | C=CCNC(=O)c1nc(Nc2ccc(C(F)(F)F)cc2)c2ccc(-c3ncccc3C(F)(F)F)nc2n1 [Compound 451, 4-(4-Trifluoromethyl-phenylamino)-7-(3-trifluoromethyl-pyridin-2-yl)-pyrido[2,3-d]pyrimidine-2-carboxylic acid allylamide] |

| Structure (SMILES) | Ki [µM] |
| --- | --- |
| Cc1cccnc1-c1ccc2c(Nc3ccc(C(C)(C)C#N)cc3)nc(COCC(C)C)nc2n1 [Compound 161, 2-{4-[2-Isobutoxymethyl-7-(3-methyl-pyridin-2-yl)-pyrido[2,3-d]pyrimidin-4-ylamino]-phenyl}-2-methyl-propionitrile] | < 1 |

— patent US20040156869A1, “2-substituted quinazolin-4-ylamine analogues” (Neurogen Corporation, priority 2002, published 2004)
